# According to patent US12569502B2, “Use of bile acids and derivatives thereof in preparation of GPR39 agonist” (PEKING UNIVERSITY, priority 2019, dated 2026):
# Read-outs that look alike come from different tables or passages of the source.
# Target: T1, GPR39 receptors on m39-20 cell lines (Mus musculus, UniProt Q5U431, T447P)
# T1 construct: P2A-mCherry (C); expressed in transfected cells
# T1 sequence (Q5U431 1-456 T447P): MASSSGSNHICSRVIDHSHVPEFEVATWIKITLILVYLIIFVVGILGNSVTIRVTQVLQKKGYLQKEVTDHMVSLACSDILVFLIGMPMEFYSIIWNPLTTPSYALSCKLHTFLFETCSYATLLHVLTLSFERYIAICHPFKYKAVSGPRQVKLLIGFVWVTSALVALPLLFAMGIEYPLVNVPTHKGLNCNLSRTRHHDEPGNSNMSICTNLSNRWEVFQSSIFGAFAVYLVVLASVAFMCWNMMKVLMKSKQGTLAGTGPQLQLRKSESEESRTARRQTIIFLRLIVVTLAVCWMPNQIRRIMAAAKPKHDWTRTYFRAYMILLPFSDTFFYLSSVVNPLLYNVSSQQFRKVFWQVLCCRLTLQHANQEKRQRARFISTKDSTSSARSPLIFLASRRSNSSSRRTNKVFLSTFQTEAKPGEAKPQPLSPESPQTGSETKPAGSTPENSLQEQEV
# Test: FLIPR calcium imaging on m39-20 cell lines stably expressing murine-derived GPR39
# Type: cell-based
# Conditions: for Bile acid + 4 μM zinc ions Efficacy / Only bile acid Efficacy: activation efficacy; for intracellular calcium signals in m39-20 cell lines: FIG. 1; for change of activation efficacy after the addition of zinc ions: Table 1, FIG. 2
# Source text: Intracellular calcium imaging is a routine technique to study cell functions, the basic principle of which is to detect the concentration of the calcium ion in tissues or cells using a calcium indicator, thereby reflecting certain reactions in the tissues or cells. In the present application, the intracellular calcium released from a cell line that stably or transiently expresses GPR39 is detected using Fluo8-AM, a calcium fluorescent indicator, so as to determine the activation of the GPR39 receptor by the bile acid and derivative thereof.
# HEK293T cells (purchased from ATCC) were seeded in a 6-well plate (coming Co.) at an appropriate density (about 0.5-2×10^5/well). When the cell density reached above 30%, the plasmid PLVXK-mGPR39-P2A-mCherry was transfected with Lipofectamine 3000 (Invitrogen) at a concentration of 2 μg per well. The cells were passaged 24 hours after transfection, the puromycin (gibco) was added into the medium at a concentration of 2 μg/mL for antibiotic screening of cells. After 2-4 days of continuous screening, the cells screened for puromycin resistance were trypsinized and screened by flow cytometry for monoclones with red fluorescence. And these monoclones were seeded in a 96-well plate and cultured in a medium without puromycin for around 10 days. Cell colonies with red fluorescence were sorted under a fluorescence microscope, trypsinized and then passaged and expanded in a 6-well plate. Cell lines m39-20 stably expressing murine-derived GPR39 were obtained through the above methods.
# Calcium dye Fluo8-AM (ATT bioquest Co.) was dissolved in DMSO solvent to formulate a stock solution of 1 μg/μL. […] After then, the calcium dye working solution was replaced with the 4K solution (50 μL per well), and acclimated for 5 min at room temperature for the subsequent calcium imaging experiment.
# Bile acids and derivatives thereof as listed in Table 1 below were dissolved in dimethyl sulfoxide (DMSO, Sigma Co.) solvent to formulate a stock solution of 50 mM, which was stored at −20° C. During calcium imaging with FLIPR, the drug was diluted with the above 4K solution into a working concentration of 400 μM, and packaged into another 96-well plate. […] The instrument parameters were set so that 50 μL of the drug solution may be added into the culture wells within 2 s. The fluorescence recording result within the first 30 seconds was used as the baseline value. The FLIPR robot arm was programmed to automatically add bile acids and derivatives thereof into the cell sample culture wells at the 31st second. 1% of DMSO solvent was used as the blank control.
# After that, the calcium dye working solution was replaced with a 4K solution containing 4 μM zinc ions (50 μL per well), followed by acclimation for 5 min at room temperature.
# [1] = Bile acid + 4 μM zinc ions EC50, m39-20 cells, 4 μM zinc ions
# [2] = m39-20 cells, no zinc ions, read-out: Only bile acid EC50
# [3] = Only bile acid EC50, m39-20 cells, no zinc ions
Compound,EC50 [1] [µM],"Bile acid + 4 μM zinc ions Efficacy (m39-20 cells, 4 μM zinc ions) [%]","Only bile acid Efficacy (m39-20 cells, no zinc ions) [%]",EC50 [2] [µM],intracellular calcium signals in m39-20 cell lines,change of activation efficacy after the addition of zinc ions (m39-20 cells),EC50 [3] [µM],"EC50 (EC50 Agonist + 4 μM zinc ions, m39-20 cells, 4 μM zinc ions) [µM]","EC50 (m39-20 cells, no zinc ions, read-out: EC50 Only agonist) [µM]"
"C[C@H](CCC(=O)O)[C@H]1CC[C@H]2[C@@H]3[C@H](O)C[C@@H]4C[C@H](O)CC[C@]4(C)[C@H]3C[C@H](O)[C@]12C [CA, Cholic acid]",49.2 ± 3.3,99.3 ± 2.1,0,> 200,,,,,
C[C@H](CCC(=O)O)[C@H]1CC[C@H]2[C@@H]3CC[C@@H]4C[C@H](OS(=O)(=O)O)CC[C@]4(C)[C@H]3C[C@H](O)[C@]12C [DCAS],37.8 ± 1,81.9 ± 2.2,0,> 200,varying extents of intracellular calcium signals,obviously improved,,,
C[C@H](CCC(=O)NCC(=O)O)[C@H]1CC[C@H]2[C@@H]3[C@H](O)C[C@@H]4C[C@H](O)CC[C@]4(C)[C@H]3C[C@H](O)[C@]12C [GCA],> 100,20 ± 2.7,0,> 200,varying extents of intracellular calcium signals,obviously improved,,,
C[C@H](CCC(=O)NCC(=O)O)[C@H]1CC[C@H]2[C@@H]3[C@H](O)C[C@@H]4C[C@H](OS(=O)(=O)O)CC[C@]4(C)[C@H]3CC[C@]12C [GCDCAS],> 100,58.6 ± 2,0,> 200,varying extents of intracellular calcium signals,obviously improved,,,
C[C@H](CCC(=O)NCC(=O)O)[C@H]1CC[C@H]2[C@@H]3[C@H](O)C[C@@H]4C[C@H](O)CC[C@]4(C)[C@H]3CC[C@]12C [GCDCA],80.6 ± 3.6,91.2 ± 4.4,16.5 ± 2.4,> 200,varying extents of intracellular calcium signals,obviously improved,,,
C[C@H](CCC(=O)NCC(=O)O)[C@H]1CC[C@H]2[C@@H]3CC[C@@H]4C[C@H](OS(=O)(=O)O)CC[C@]4(C)[C@H]3C[C@H](O)[C@]12C [GDCAS],> 100,58.5 ± 4.8,0,> 200,varying extents of intracellular calcium signals,obviously improved,,,
C[C@H](CCC(=O)NCC(=O)O)[C@H]1CC[C@H]2[C@@H]3CC[C@@H]4C[C@H](O)CC[C@]4(C)[C@H]3C[C@H](O)[C@]12C [GDCA],46 ± 10.3,86.4 ± 6.3,7.7 ± 1.7,> 200,varying extents of intracellular calcium signals,obviously improved,,,
C[C@H](CCC(=O)NCC(=O)O)[C@H]1CC[C@H]2[C@@H]3CC[C@@H]4C[C@H](O)CC[C@]4(C)[C@H]3CC[C@]12C [GLCA],13.5 ± 3.4,74 ± 4.1,0,,varying extents of intracellular calcium signals,obviously improved,> 200,,
C[C@H](CCC(=O)NCC(=O)O)[C@H]1CC[C@H]2[C@@H]3[C@@H](O)C[C@@H]4C[C@H](O)CC[C@]4(C)[C@H]3CC[C@]12C [GUDCA],> 100,35.3 ± 6.8,0,> 200,varying extents of intracellular calcium signals,obviously improved,,,
"C[C@H](CCC(=O)O)[C@H]1CC[C@H]2[C@@H]3CC[C@@H]4C[C@H](O)CC[C@]4(C)[C@H]3CC[C@]12C [LCA, Lithocholic acid]",> 100,1.3 ± 1.1,0,> 200,,,,,
C[C@H](CCC(=O)NCCS(=O)(=O)O)[C@H]1CC[C@H]2[C@@H]3[C@H](O)C[C@@H]4C[C@H](O)CC[C@]4(C)[C@H]3C[C@H](O)[C@]12C [TCA],> 100,31.8 ± 3,0,,varying extents of intracellular calcium signals,obviously improved,> 200,,
C[C@H](CCC(=O)NCCS(=O)(=O)O)[C@H]1CC[C@H]2[C@@H]3[C@H](O)C[C@@H]4C[C@H](OS(=O)(=O)O)CC[C@]4(C)[C@H]3CC[C@]12C [TCDCAS],> 100,39.7 ± 3.3,0,> 200,varying extents of intracellular calcium signals,obviously improved,,,
C[C@H](CCC(=O)NCCS(=O)(=O)O)[C@H]1CC[C@H]2[C@@H]3CC[C@@H]4C[C@H](OS(=O)(=O)O)CC[C@]4(C)[C@H]3C[C@H](O)[C@]12C [TDCAS],> 100,60.1 ± 5.5,0,> 200,varying extents of intracellular calcium signals,obviously improved,,,
C[C@H](CCC(=O)NCCS(=O)(=O)O)[C@H]1CC[C@H]2[C@@H]3CC[C@@H]4C[C@H](O)CC[C@]4(C)[C@H]3C[C@H](O)[C@]12C [TDCA],27.6 ± 7.1,99.3 ± 1.7,22.8 ± 3,> 200,varying extents of intracellular calcium signals,obviously improved,,,
"CNc1nc(NCc2ccc(NS(C)(=O)=O)cc2Cl)cc(-c2ccccn2)n1 [TG-G 1008, reference compound]",,,,,,,,1.5,39
C[C@H](CCC(=O)NCCS(=O)(=O)O)[C@H]1CC[C@H]2[C@@H]3CC[C@@H]4C[C@H](O)CC[C@]4(C)[C@H]3CC[C@]12C [TLCA],8.1 ± 2.4,103.5 ± 1.1,47.8 ± 1.1,44 ± 10,varying extents of intracellular calcium signals,,,,
